Laboratory results published in patent publication US20070134286A1, “Methods for reducing intimal hyperplasia, smooth muscle cell proliferation and restenosis in mammals” (priority 2004, published 2007).
Where two headings read alike, the source gives them in different places.

Columns and labels:
[1] = test system: human coronary artery smooth muscle cells; experiment: 3H-thymidine incorporation (DNA synthesis / cell proliferation); format: cell-based
Protocol: One day after plating, the cells were treated with test agents for 24 hours and then labeled with 0.3 μCi/well of ^3H-thymidine for another 48 hours. Each well was washed with 0.3 ml/well of PBS, incubated with 0.2 ml/well of ice-cold 10% trichloroacetic acid (hereinafter “TCA”) for 30 minutes at 4° C., and then followed by another wash of 0.2 ml/well of TCA. Samples were dissolved in MICROSCINT™ 20 before counting. Data shown are mean ± the standard deviation (n=4).
Thymidine incorporation: Cells were plated at 1×10^6 cells/ml, 200 μl/well into 96-well plates (Costar). One day after plating, the cells were treated with test agents for 24 hr and then labeled with 0.3 μCi/well of ^3H-thymidine for another 48 hr. Each well was washed with 0.3 ml/well of PBS, incubated with 0.2 ml/well of ice-cold 10% trichloroacetic acid (TCA) for 30 min at 4° C., and then followed by another wash of 0.2 ml/well of TCA. Samples were dissolved in MICROSCINT™ 20 (Packard) before counting.

[2] = test system: primary culture of human coronary artery smooth muscle cells; experiment: Affymetrix U133Av2 microarray gene expression; format: cell-based; settings: 100 nM, 30 hr, ratio to no-drug control; for FC angiopoietin 1 (NM_001146) / FC coagulation factor II (thrombin) receptor-like 1 (NM_005242) / FC endothelin receptor type B (NM_000115) / FC fibroblast growth factor 9 (glia-activating factor) (NM_002010) / FC fibroblast growth factor receptor 3 (achondroplasia, thanatophoric dwarfism) (NM_000142) / FC insulin-like growth factor 1 (somatomedin C) (NM_000618) / FC matrix metalloproteinase 14 (membrane-inserted) (NM_004995) / FC natriuretic peptide precursor B (NM_002521) / FC oxytocin receptor (NM_000916) / FC phospholamban (NM_002667) / FC prostaglandin-endoperoxide synthase 1 (prostaglandin G/H synthase and cyclooxygenase) (NM_000962) / FC thrombomodulin (NM_000361) / FC thrombospondin 1 (AI812030) / FC transforming growth factor, beta 2 (NM_003238) / FC transforming growth factor, beta 3 (J03241): Table 4
Protocol: Microarray: […] While the yield of total RNA was low ([…] total per sample), the RNAs were intact as judged by Agilent 2100 analysis. One μg of total RNA from each sample was used to prepare biotin-labeled cRNA target using standard Affymetrix protocols. Prepared cRNA targets were of good quality and quantity. The Affymetrix Human chip U133Av2 was used (22,000+ probe sets) and 10 μg cRNA target was applied to each array. […] Scanned images were loaded into the Rosetta Resolver 4.0 database and processed using the Resolver Affymetrix error model. Within Resolver the drug treated sample replicates (n=3) were informatically combined and ratios constructed relative to the combined control (no addition of drug) samples. The Resolver Affymetrix error model was used to develop each ratio and calculate a p-value. The Resolver error model is robust and includes reporter level, background and error values in the calculation of statistical significance. A combination of hierarchical clustering, gene ontology analysis and pathway mapping were used to assess the function of the regulated genes.

TGFβ3 = experiment: Real-time RT-PCR, TGFβ3 mRNA expression in smooth muscle cells; format: cell-based; settings: Homo sapiens, normalized to GAPDH, FIG. 7, read-out: EC50 on TGFβ3 mRNA expression (up-regulation)
Protocol: (§1) Primers and probes for Real-time Reverse Transcription-PCR: For quantitative PCR (qPCR), TaqMan™ probes that were 5′ labeled with the reporter 6-carboxyfluorescein (FAM) and 3′ labeled with the quencher tetramethylrhodamine (TAMRA) were used. The primer and probe sets were obtained from the Assay-on-Demand collection (Applied Biosytsems).
(§2) Real-time Reverse Transcription-PCR: PCR was performed with a 7900HT sequence detector (Applied Biosytsems). Each sample has a final volume of 25 μl containing 50 ng of cDNA, […] each of the forward and reverse PCR primers and […] of the TaqMan™ probe. Temperature conditions consisted of a step of 5 minutes at 95° C., followed by 40 cycles of 60° C. for 1 minute and 95° C. for 15 seconds. Data was collected during each extension phase of the PCR reaction and analyzed with the SDS software package (Applied Biosystems). Threshold cycles were determined for each gene. The expression level of target gene of interest was given as relative expression normalized against glyceraldehyde-3-phosphate dehydrogenase (GAPDH).

VDR = settings: 0.1 μM, CASMC in growth medium, not all cells responded, FIG. 2
WT1 = experiment: Real-time RT-PCR, WT1 mRNA expression in smooth muscle cells; format: cell-based; settings: Homo sapiens, normalized to GAPDH, FIG. 7, read-out: EC50 on WT1 mRNA expression (up-regulation)
Protocol: as §1, §2

[3] = test system: plasminogen activator inhibitor type-1 (PAI-1); experiment: SDS-PAGE and Western blot of PAI-1 in CASMC; format: cell-based, human; settings: Western blot, FIG. 6
Protocol: SDS-PAGE and Western Blot Analysis: Cells (1×10^6 cells per sample) pretreated with or without test agents were solubilized in 50 μl of SDS-PAGE sample buffer (Sigma, St. Louis, Mo.), and the protein content in each sample was determined by the Pierce (Rockford, Ill.) BCA protein assay. Samples were resolved by SDS-PAGE using a 4-12% NuPAGE gel (Invitrogen, Carlsbad, Calif.), and proteins were electrophoretically transferred to polyvinylidene fluoride (hereinafter “PVDF”) membrane for Western blotting. The membrane was blotted for 1 hour at 25° C. with 5% nonfat dry milk in PBS-T and then incubated with a mouse anti-PAI-1 monoclonal antibody (1000-fold dilution, Santa Cruz Biotechnology, Santa Cruz, Calif.) in PBS-T overnight at 4° C. The membrane was washed with PBS-T and incubated with a horseradish peroxidase-labeled anti-mouse antibody for 1 hour at 25° C. The membrane was then incubated with detection reagent (SuperSignal WestPico, Pierce, Rockford, Ill.). Specific bands were visualized by exposing the paper to Kodak BioMax films.

IGF1 = experiment: Real-time RT-PCR, IGF1 mRNA expression in smooth muscle cells; format: cell-based; settings: Homo sapiens, normalized to GAPDH, FIG. 7, read-out: EC50 on IGF1 mRNA expression (up-regulation)
Protocol: as §1, §2

CC(=O)O[C@H]1C(=O)[C@@]2(C)[C@H]([C@H](OC(=O)c3ccccc3)[C@]3(O)C[C@H](OC(=O)[C@H](O)[C@@H](NC(=O)c4ccccc4)c4ccccc4)C(C)=C1C3(C)C)[C@]1(OC(C)=O)CO[C@@H]1C[C@@H]2O [taxol]
effect on DNA synthesis ([3H]-thymidine incorporation) ([1]; Example 1, even at 0.01 nM, FIG. 3): severely impacted DNA synthesis

C=C1/C(=C\C=C2/CCC[C@]3(C)[C@@H]([C@H](C)CCCC(C)(C)O)CC[C@@H]23)C[C@@H](O)C[C@@H]1O [calcitriol, 1-alpha-25-dihydroxyvitamin D3]
FC CD1D antigen, d polypeptide (205789_at) [2]: 6.95 | FC CDK5 regulatory subunit associated protein 2 (220935_s_at) [2]: 2.67 | FC Kruppel-like factor 4 (gut) (220266_s_at) [2]: 2.67 | FC PMS2 postmeiotic segregation increased 2 (S. cerevisiae) (209805_at) [2]: 2.85 | FC Wilms tumor 1 (206067_s_at) [2]: 3.55 | FC Wilms tumor 1 (216953_s_at) [2]: 6.63 | FC Wilms tumor associated protein (206954_at) [2]: 2.96 | FC basic helix-loop-helix domain containing, class B, 3 (221530_s_at) [2]: −2.00 | FC cholecystokinin B receptor (210381_s_at) [2]: −1.65 | FC cyclin F (204827_s_at) [2]: −1.09 | FC cysteine and glycine-rich protein 2 (207030_s_at) [2]: −2.13 | FC cysteine and glycine-rich protein 2 (211126_s_at) [2]: −2.21 | FC ecotropic viral integration site 2A (204774_at) [2]: −1.77 | FC fibroblast growth factor 9 (glia-activating factor) (206404_at) [2]: 2.07 | FC insulin-like growth factor 1 (somatomedin C) (209540_at) [2]: 4.39 | FC insulin-like growth factor 1 (somatomedin C) (209541_at) [2]: 2.78 | FC insulin-like growth factor 1 (somatomedin C) (209542_x_at) [2]: 3.23 | FC insulin-like growth factor 1 (somatomedin C) (211577_s_at) [2]: 3.47 | FC mitogen-activated protein kinase 13 (210058_at) [2]: 2.27 | FC mitogen-activated protein kinase 13 (210059_s_at) [2]: 3.27 | FC myosin heavy polypeptide 10, non-muscle (213067_at) [2]: −2.03 | FC putative lymphocyte G0/G1 switch gene (213524_s_at) [2]: 3.69 | FC retinoblastoma-like 2 (p130) (212332_at) [2]: 1.10 | FC suppressor of cytokine signaling 2 (203372_s_at) [2]: −2.29 | FC suppressor of cytokine signaling 2 (203373_at) [2]: −2.50 | FC tetraspan 1 (209114_at) [2]: −4.34 | FC transforming growth factor, beta 2 (209909_s_at) [2]: 2.91 | FC transforming growth factor, beta 2 (220407_s_at) [2]: 2.97 | FC transforming growth factor, beta 3 (209747_at) [2]: 2.83 | FC angiopoietin 1 (NM_001146) [2]: 2.0 | FC coagulation factor II (thrombin) receptor-like 1 (NM_005242) [2]: −1.7 | FC endothelin receptor type B (NM_000115) [2]: 3.4 | FC fibroblast growth factor 9 (glia-activating factor) (NM_002010) [2]: 2.1 | FC fibroblast growth factor receptor 3 (achondroplasia, thanatophoric dwarfism) (NM_000142) [2]: 1.9 | FC insulin-like growth factor 1 (somatomedin C) (NM_000618) [2]: 2.8 | FC matrix metalloproteinase 14 (membrane-inserted) (NM_004995) [2]: 2.1 | FC natriuretic peptide precursor B (NM_002521) [2]: −2.0 | FC oxytocin receptor (NM_000916) [2]: −3.0 | FC phospholamban (NM_002667) [2]: −2.6 | FC prostaglandin-endoperoxide synthase 1 (prostaglandin G/H synthase and cyclooxygenase) (NM_000962) [2]: 2.2 | FC thrombomodulin (NM_000361) [2]: 3.3 | FC thrombospondin 1 (AI812030) [2]: −3.2 | FC transforming growth factor, beta 2 (NM_003238) [2]: 2.9 | FC transforming growth factor, beta 3 (J03241) [2]: 2.9

C[C@H](/C=C/[C@H](C)C(C)(C)O)[C@H]1CC[C@H]2/C(=C/C=C3C[C@@H](O)C[C@H](O)C3)CCC[C@]12C [paricalcitol, 19-nor-1α,3β,25-trihydroxy-9,10-secoergosta-5(Z); 7(E),22(E)-triene]
FC CD1D antigen, d polypeptide (205789_at) [2]: 5.38 | FC CDK5 regulatory subunit associated protein 2 (220935_s_at) [2]: 2.91 | FC Kruppel-like factor 4 (gut) (220266_s_at) [2]: 2.37 | FC PMS2 postmeiotic segregation increased 2 (S. cerevisiae) (209805_at) [2]: 2.18 | FC Wilms tumor 1 (206067_s_at) [2]: 3.32 | FC Wilms tumor 1 (216953_s_at) [2]: 4.64 | FC Wilms tumor associated protein (206954_at) [2]: 2.72 | FC basic helix-loop-helix domain containing, class B, 3 (221530_s_at) [2]: −1.80 | FC cholecystokinin B receptor (210381_s_at) [2]: −3.04 | FC cyclin F (204827_s_at) [2]: −2.75 | FC cysteine and glycine-rich protein 2 (207030_s_at) [2]: −2.18 | FC cysteine and glycine-rich protein 2 (211126_s_at) [2]: −2.33 | FC ecotropic viral integration site 2A (204774_at) [2]: −2.49 | FC fibroblast growth factor 9 (glia-activating factor) (206404_at) [2]: 1.88 | FC insulin-like growth factor 1 (somatomedin C) (209540_at) [2]: 4.89 | FC insulin-like growth factor 1 (somatomedin C) (209541_at) [2]: 2.63 | FC insulin-like growth factor 1 (somatomedin C) (209542_x_at) [2]: 3.24 | FC insulin-like growth factor 1 (somatomedin C) (211577_s_at) [2]: 3.43 | FC mitogen-activated protein kinase 13 (210058_at) [2]: 2.40 | FC mitogen-activated protein kinase 13 (210059_s_at) [2]: 3.26 | FC myosin heavy polypeptide 10, non-muscle (213067_at) [2]: −1.80 | FC putative lymphocyte G0/G1 switch gene (213524_s_at) [2]: 3.46 | FC retinoblastoma-like 2 (p130) (212332_at) [2]: −1.37 | FC suppressor of cytokine signaling 2 (203372_s_at) [2]: −2.70 | FC suppressor of cytokine signaling 2 (203373_at) [2]: −2.39 | FC tetraspan 1 (209114_at) [2]: −1.79 | FC transforming growth factor, beta 2 (209909_s_at) [2]: 2.48 | FC transforming growth factor, beta 2 (220407_s_at) [2]: 1.88 | FC transforming growth factor, beta 3 (209747_at) [2]: 2.80 | FC angiopoietin 1 (NM_001146) [2]: 1.7 | FC coagulation factor II (thrombin) receptor-like 1 (NM_005242) [2]: −2.1 | FC endothelin receptor type B (NM_000115) [2]: 2.3 | FC fibroblast growth factor 9 (glia-activating factor) (NM_002010) [2]: 1.9 | FC fibroblast growth factor receptor 3 (achondroplasia, thanatophoric dwarfism) (NM_000142) [2]: 3.4 | FC insulin-like growth factor 1 (somatomedin C) (NM_000618) [2]: 2.5 | FC matrix metalloproteinase 14 (membrane-inserted) (NM_004995) [2]: 1.1 | FC natriuretic peptide precursor B (NM_002521) [2]: −2.5 | FC oxytocin receptor (NM_000916) [2]: −2.6 | FC phospholamban (NM_002667) [2]: −2.4 | FC prostaglandin-endoperoxide synthase 1 (prostaglandin G/H synthase and cyclooxygenase) (NM_000962) [2]: 2.0 | FC thrombomodulin (NM_000361) [2]: 3.0 | FC thrombospondin 1 (AI812030) [2]: −2.7 | FC transforming growth factor, beta 2 (NM_003238) [2]: 2.5 | FC transforming growth factor, beta 3 (J03241) [2]: 2.9 | EC50 (TGFβ3): 10.6 nM | VDR translocation (confocal microscopy) (VDR): VDR translocated into the nucleus | EC50 (WT1): 29.7 nM | potency in reducing PAI-1 level / inhibiting PAI-1 expression [3]: as potent as calcitriol | EC50 (IGF1): 0.2 nM | EC50 ([1]; Homo sapiens, Example 1, CASMC, FIG. 4, read-out: EC50 inhibiting DNA synthesis ([3H]-thymidine incorporation)): 0.044 ± 0.004 nM | EC50 ([1]; Homo sapiens, Example 2, FIG. 8, read-out: EC50 inhibition of 3H-thymidine incorporation): 0.2 nM | inhibition at 0.01 µM ([1]; Homo sapiens, Example 2, at 10 nM, compared to cells in growth medium): 46%
